# Results from PMC8491704, “Pharmacokinetic study of Tangwang Mingmu granule for the management of diabetic retinopathy based on network pharmacology” (Pharmaceutical Biology, 2021).
# Read-outs that look alike come from different tables or passages of the source.
# Key:
# [1] = Pharmacokinetic study in SD rats after oral administration of TWMM (UPLC-QQQ-MS of plasma); format: in vivo, Sprague-Dawley (SD) rats; conditions: oral TWMM 9.6 g/kg; for AUC(0-t): n = 6, read-out: AUC (0–36); for Cmax: n = 6, read-out: Cmax; for MRT last: n = 6, read-out: MRT (0–36); for MRT inf: n = 6, read-out: MRT (0–∞); for AUC(0-inf): read-out: areas under the concentration-time curve (AUC0–∞)
# Procedure: Chromatographic separation was performed using an ACQUITY UPLC H-Class system equipped with a 1.8 μm HSS T3 analytical column (100 mm × 2.1 i.d., Waters Corporation, Milford, USA). […] ESI source was set to negative ionisation mode while the analysis was performed using multiple reaction monitorin. Ion spray voltage (3000 V), capillary temperature (450 °C), and the source parameters of the nine compounds are shown in Table 2.
# The data obtained from the UPLC/Q-Orbitrap MS was imported into Xcalibur 4.0 software for analysis. Furthermore, the constituents acquired using GCMS-QP 2010 were profiled by comparison using the National Institute of Standards and Technology (NIST) database. The pharmacokinetic data were processed through MassLynx 4.1, and DAS 2.0 software was used to calculate the pharmacokinetic parameters according to the compartment model.
# Six male SD rats (average weight: 220 ± 10 g) were acquired from Beijing Vital-River Laboratory Animal Technology Co., Ltd. All rats were acclimatized to an environmentally controlled laboratory for a week. Following this period, the rats were exposed to fasting conditions for 12 h but were allowed free access to water before the experiment. The rats were orally administered TWMM at a dose of 9.6 g/kg. Blood samples (300 µL) were collected into heparinized centrifuge tubes from the fossa orbitalis at pre-dose and 0.03, 0.08, 0.17, 0.25, 0.5, 1, 2, 4, 8, 12, 24, and 36 h intervals. The samples were immediately centrifuged at 6000 g for 10 min at 4 °C and the supernatants were transferred to clean centrifuge tubes.
# Each 100 µL plasma sample was mixed with 20 µL of methanol, 20 µL of IS (5 µg/mL), and 600 µL acetonitrile. The mixtures were centrifuged at 15,000 g for 10 min at 4 °C after being vortexed for 3 min. The obtained supernatants were transferred to clean 1.5 mL centrifuge tubes, followed by evaporation under a milt nitrogen stream. Next, the obtained residues were individually redissolved in 100 µL of methanol and centrifuged at 15,000 g for 10 min at 4 °C after vortexed for 3 min. Lastly, 10 µL of individual supernatant was injected for analysis.
# [2] = Stability of QC samples of 8 compounds in rat plasma (25 °C 4 h, autosampler 12 h, three freeze-thaw cycles, −80 °C 7 d); format: in vitro ADME; conditions: rat, plasma; for Stability in rat plasma, Long term (7 day, –80 °C), Measured: 168 h
# Procedure: The calibration curves were assessed at eight concentration levels using the correlation coefficient (r). The lower limit of quantification (LLOQ) could fulfil the analytical requirements and achieved reliable accuracy and precision with a signal-to-noise ratio (S/N) ≥ 10. To determine intra- and inter-day precision and accuracy, six replicate quality control (QC) samples at three concentrations were prepared. Inter- and intra-day precision was evaluated by determining relative standard deviation (RSD) values, while accuracy was expressed in terms of the relative error (RE). The extraction recoveries were determined using three concentration levels and calculated by comparing the peak area of extracted samples with post-extracted spiked samples. Subsequently, matrix effects were assessed using the peak area of post-extracted spiked samples contrasted with QC samples at the three concentration levels. The stability test of QC samples at the three concentration levels was as follows: storage at 25 °C for 4 h, storage in an autosampler for 12 h, freeze-thaw cycle for three times, and storage at −80 °C for 7 d.
# The stability tests were carried out under three freeze-thaw cycles, at 25 °C for 4 h, in an autosampler for 12 h, and at −80 °C for 7 d.
# HUVEC cells = assay: Assay of intracellular reactive oxygen species (ROS), DCFH-DA, high glucose; format: cell-based, human; conditions: luteolin 20, 10, 5 µM or formononetin 40, 20, 10 µM for 2 h, then high glucose 24 h
# Procedure: The generation of ROS was detected using dichloro-dihydro-fluorescein diacetate (DCFH-DA, reactive oxygen species assay kit, Solarbio, Beijing) as per manufacturer instructions. In this study, we seeded HUVEC cells in a 96-well plate at 7 × 10^3 per well. […] DCF fluorescence was assessed at F488/525 nm by using a bioassay multi-detection fluorescent plate reader (Tecan Spark, Switzerland).
# [3] = design: method as in Guan et al. 2014; Cheruvu et al. 2018; Jia et al. 2020; conditions: in different herbal extracts and prescriptions; ref Guan et al. 2014; Cheruvu et al. 2018; Jia et al. 2020; cited from earlier work
# [4] = male, Sprague-Dawley, rat, n = 6
# [5] = male, Sprague-Dawley, rat, po, 9.6 g/kg, n = 6, read-out: Tmax
Structure (SMILES),"half-life [1, 4]","AUC(0-t) ([1]; male, Sprague-Dawley, rat)","Cmax ([1]; male, Sprague-Dawley, rat)","MRT last ([1]; male, Sprague-Dawley, rat)","MRT inf ([1]; male, Sprague-Dawley, rat)","AUC(0-inf) ([1]; male, Sprague-Dawley, rat)",Tmax ([1]; n = 6),"Stability in rat plasma, Three freeze/thaw cycles, Measured ([2]; 1 ng/mL)","Stability in rat plasma, Three freeze/thaw cycles, Measured ([2]; 10 ng/mL)","Stability in rat plasma, Three freeze/thaw cycles, Measured ([2]; 200 ng/mL)","Stability in rat plasma, Room temperature (4 h, 25 °C), Measured ([2]; 1 ng/mL)","Stability in rat plasma, Room temperature (4 h, 25 °C), Measured ([2]; 10 ng/mL)","Stability in rat plasma, Room temperature (4 h, 25 °C), Measured ([2]; 200 ng/mL)","Stability in rat plasma, Autosampler (12 h, 4 °C), Measured ([2]; 1 ng/mL)","Stability in rat plasma, Autosampler (12 h, 4 °C), Measured ([2]; 10 ng/mL)","Stability in rat plasma, Autosampler (12 h, 4 °C), Measured ([2]; 200 ng/mL)","Stability in rat plasma, Long term (7 day, –80 °C), Measured ([2]; 1 ng/mL)","Stability in rat plasma, Long term (7 day, –80 °C), Measured ([2]; 10 ng/mL)","Stability in rat plasma, Long term (7 day, –80 °C), Measured ([2]; 200 ng/mL)",ROS generation induced by HG (HUVEC cells),also measured
COc1ccc(-c2coc3cc(O)ccc3c2=O)cc1 [Formononetin],11.7 ± 2.09 h,0.0408 ± 0.00851 µg·h/mL,6.17 ± 1.65 ng/mL,10.7 ± 1.17 h,15.7 ± 1.9 h,0.046 ± 0.00789 µg·h/mL,0.46 ± 0.29 h,1.0 ± 0.1 ng/mL,10.1 ± 1.0 ng/mL,206.3 ± 21.0 ng/mL,1.1 ± 0.1 ng/mL,11.8 ± 0.2 ng/mL,220.6 ± 3.5 ng/mL,1.2 ± 0.1 ng/mL,10.1 ± 0.2 ng/mL,222.6 ± 3.6 ng/mL,1.1 ± 0.1 ng/mL,10.2 ± 0.2 ng/mL,216.0 ± 4.3 ng/mL,could alleviate the symptom of DR,"Tmax ([1]; n = 6, listed as formononetin): ≤ 1 h"
O=c1cc(-c2ccc(O)c(O)c2)oc2cc(O)cc(O)c12 [Luteolin],11.1 ± 10.2 h,0.0385 ± 0.00761 µg·h/mL,3.27 ± 0.78 ng/mL,11.4 ± 1.23 h,18.2 ± 9.14 h,0.044 ± 0.00419 µg·h/mL,,1.1 ± 0.1 ng/mL,11.4 ± 0.8 ng/mL,218.0 ± 9.9 ng/mL,1.2 ± 0.1 ng/mL,11.3 ± 0.3 ng/mL,217.9 ± 11.7 ng/mL,1.1 ± 0.1 ng/mL,10.0 ± 0.2 ng/mL,205.6 ± 0.9 ng/mL,1.0 ± 0.1 ng/mL,10.4 ± 0.6 ng/mL,221.9 ± 6.8 ng/mL,could alleviate the symptom of DR,"Tmax [1, 5]: 1.71 ± 1.79 h; Tmax [3]: 0.50 to 2.83 h; t1/2 [3]: 3.63 to 12.10 h"
C/C=C1/[C@H](O[C@@H]2O[C@H](CO)[C@@H](O)[C@H](O)[C@H]2O)OC=C(C(=O)OC)[C@H]1CC(=O)OCCc1ccc(O)c(O)c1 [Oleuropein],3.36 h,0.00103 ± 0.00075 µg·h/mL,0.9 ± 0.82 ng/mL,1.53 ± 1.25 h,1.54 ± 1.25 h,0.00103 ± 0.00075 µg·h/mL,,,,,,,,,,,,,,,"Tmax [1, 5]: 1.37 ± 1.6 h; t1/2 ([1]; n = 6): rapid elimination; Stability in rat plasma, Three freeze/thaw cycles, Measured ([2]; 0.5 ng/mL): 0.5 ± 0.1 ng/mL; Stability in rat plasma, Three freeze/thaw cycles, Measured ([2]; 5 ng/mL): 5.1 ± 0.2 ng/mL; Stability in rat plasma, Three freeze/thaw cycles, Measured ([2]; 100 ng/mL): 103.6 ± 9.3 ng/mL; Stability in rat plasma, Room temperature (4 h, 25 °C), Measured ([2]; 0.5 ng/mL): 0.5 ± 0.1 ng/mL; Stability in rat plasma, Room temperature (4 h, 25 °C), Measured ([2]; 5 ng/mL): 4.3 ± 0.5 ng/mL; Stability in rat plasma, Room temperature (4 h, 25 °C), Measured ([2]; 100 ng/mL): 108.6 ± 7.8 ng/mL; Stability in rat plasma, Autosampler (12 h, 4 °C), Measured ([2]; 0.5 ng/mL): 0.4 ± 0.1 ng/mL; Stability in rat plasma, Autosampler (12 h, 4 °C), Measured ([2]; 5 ng/mL): 0.5 ± 0.0 ng/mL; Stability in rat plasma, Autosampler (12 h, 4 °C), Measured ([2]; 100 ng/mL): 93.4 ± 8.6 ng/mL; Stability in rat plasma, Long term (7 day, –80 °C), Measured ([2]; 0.5 ng/mL): 1.0 ± 0.0 ng/mL; Stability in rat plasma, Long term (7 day, –80 °C), Measured ([2]; 5 ng/mL): 4.9 ± 0.3 ng/mL; Stability in rat plasma, Long term (7 day, –80 °C), Measured ([2]; 100 ng/mL): 113.9 ± 9.9 ng/mL"
C[C@@H]1O[C@@H](O[C@@H]2[C@@H](O)[C@H](OCCc3ccc(O)c(O)c3)O[C@H](CO)[C@H]2OC(=O)/C=C/c2ccc(O)c(O)c2)[C@H](O)[C@H](O)[C@H]1O [Verbascoside],2.08 ± 0.38 h,0.175 ± 0.0408 µg·h/mL,45.5 ± 21.2 ng/mL,8.9 ± 3.44 h,8.91 ± 3.44 h,0.175 ± 0.0408 µg·h/mL,0.25 ± 0.14 h,,,,,,,,,,,,,,"Tmax ([1]; n = 6, listed as verbascoside): ≤ 1 h; t1/2 ([1]; n = 6, listed as verbascoside): rapid elimination; Stability in rat plasma, Three freeze/thaw cycles, Measured ([2]; 2 ng/mL): 2.0 ± 0.1 ng/mL; Stability in rat plasma, Three freeze/thaw cycles, Measured ([2]; 20 ng/mL): 21.8 ± 1.9 ng/mL; Stability in rat plasma, Three freeze/thaw cycles, Measured ([2]; 400 ng/mL): 416.4 ± 17.6 ng/mL; Stability in rat plasma, Room temperature (4 h, 25 °C), Measured ([2]; 2 ng/mL): 2.2 ± 0.1 ng/mL; Stability in rat plasma, Room temperature (4 h, 25 °C), Measured ([2]; 20 ng/mL): 19.6 ± 1.0 ng/mL; Stability in rat plasma, Room temperature (4 h, 25 °C), Measured ([2]; 400 ng/mL): 427.6 ± 13.8 ng/mL; Stability in rat plasma, Autosampler (12 h, 4 °C), Measured ([2]; 2 ng/mL): 2.1 ± 0.2 ng/mL; Stability in rat plasma, Autosampler (12 h, 4 °C), Measured ([2]; 20 ng/mL): 23.8 ± 1.8 ng/mL; Stability in rat plasma, Autosampler (12 h, 4 °C), Measured ([2]; 400 ng/mL): 402.4 ± 19.1 ng/mL; Stability in rat plasma, Long term (7 day, –80 °C), Measured ([2]; 2 ng/mL): 1.9 ± 0.2 ng/mL; Stability in rat plasma, Long term (7 day, –80 °C), Measured ([2]; 20 ng/mL): 21.3 ± 1.8 ng/mL; Stability in rat plasma, Long term (7 day, –80 °C), Measured ([2]; 400 ng/mL): 430.0 ± 6.2 ng/mL"
